Test results as given in article PMC10313921, “A living ex vivo platform for functional, personalized brain cancer diagnosis” (Cell Reports Medicine, 2023).

Legend:
[1] = test system: LN229 (established GBM line); experiment: Drug screening of LN229 tumor foci on OBSCs; format: cell-based, human; details: for EC50 / EC90 / IC50: Homo sapiens; for EC50: LN-229, dose required to kill 50% of the tumor; for EC90: LN-229, dose required to kill 90% of the tumor; for IC50: LN-229, dosed day 1, survival via bioluminescence day 4, linear interpolation; for AUC: area under the dose-response curve, trapezoidal rule; for EC10: dose required to kill 10% of the tumor; for EC25: dose required to kill 25% of the tumor; for Slope: slope through the EC50
Procedure, shortened: (§1)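 Drug effects on tumor foci grown on brain slices are quantified by bioluminescence three days after treatment, relative to untreated foci and day-one fluorescence. Efficacy versus slice toxicity is combined into a weighted drug sensitivity score.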

[2] = test system: GBM8 (high-passage patient-derived GBM line); experiment: Drug screening of GBM8 tumor foci on OBSCs; format: cell-based, human; details: for Killing at highest dose / AUC / EC10 / EC25 / EC75 / Slope / EC50 / IC50: GBM8 on OBSCs; for AUC: area under the dose-response curve, trapezoidal rule; for EC10: dose required to kill 10% of the tumor; for EC25: dose required to kill 25% of the tumor; for EC75: dose required to kill 75% of the tumor; for Slope: slope through the EC50; for EC90 / EC50 / IC50: Homo sapiens; for EC50: dose required to kill 50% of the tumor, read-out: EC50; for IC50: dosed day 1, survival via bioluminescence day 4, linear interpolation, read-out: IC50
Procedure, shortened: as §1

[3] = test system: MS21 (low-passage patient-derived GBM line); experiment: Drug screening of MS21 tumor foci on OBSCs; format: cell-based, human; details: for EC90 / EC50 / IC50: Homo sapiens; for EC50: dose required to kill 50% of the tumor, read-out: EC50; for IC50: dosed day 1, survival via bioluminescence day 4, linear interpolation, read-out: IC50
Procedure, shortened: as §1

[4] = test system: U373WT (wild-type established GBM line); experiment: Drug screening of U373WT tumor foci on OBSCs; format: cell-based, human; details: U373 WT on OBSCs; for EC50 / EC90 / IC50: Homo sapiens, U373 MG; for EC50: dose required to kill 50% of the tumor; for EC90: dose required to kill 90% of the tumor; for IC50: dosed day 1, survival via bioluminescence day 4, linear interpolation; for AUC: area under the dose-response curve, trapezoidal rule; for EC10: dose required to kill 10% of the tumor; for Slope: slope through the EC50
Procedure, shortened: as §1

[5] = test system: MB231Br (breast cancer metastasis to brain); experiment: Drug screening of MB231Br tumor foci on OBSCs; format: cell-based, human; details: for EC50 / EC90 / IC50: Homo sapiens; for EC50: dose required to kill 50% of the tumor; for EC90: dose required to kill 90% of the tumor; for IC50: MB231Br on OBSCs, dosed day 1, survival via bioluminescence day 4, linear interpolation; for Slope: slope through the EC50
[6] = test system: MG-II patient tumor tissue (WHO grade II meningioma); experiment: Drug screening of uncultured patient tumor tissue MG-II on OBSCs; format: cell-based; details: Homo sapiens, dose required to kill 90% of the tumor
Protocol: (§2) Tumor cells were seeded onto OBSCs 2h after slicing as described above. One day after tumor seeding, six concentrations of each drug were diluted in the media underneath each culture insert, or XRad was applied using an X-Rad 320 Precision X-ray machine (n = 4 tumor foci per concentration; n ≥ 24 tumor foci per drug per cell line). Three days after treatment, the bioluminescence of live tumor cells was measured using an AMI optical imager (Spectral Instruments) and dose-response curves were generated. Tumor survival was normalized to day one tumor fluorescence and compared to an untreated control group.
(§3) To engraft onto OBSCs, the cryopreserved/thawed or fresh brain tumor tissue was filtered through a 100 μm cell strainer. Each 50 mg of tissue was transfected with 1mL mcherry-FLuc Lentivirus at 1.5e7 vg/ml with 1μL polybrene for 4h at 37°C. After incubation, the brain tumor tissue was washed with PBS three times to remove the residual virus and reconstituted in PBS with a final volume of 150 μL. Then the tissue solution was engrafted atop OBSCs at ∼0.5 mg tissue in 3 μL of PBS on each hemisphere of the slice. The OBSC engrafted with patient tumor tissue was incubated at 37°C with 5% CO2 and 95% humidity. The BSM was changed after 24h and subsequently every 3 days. Tumor treatment studies were executed as described above for tumor lines. The viability of the patient tissue was measured by an AMI optical imaging system with the addition of 1.5 mg/mL luciferin underneath the culture insert.
(§4) Several weighted parameters were factored into an overall drug sensitivity score.
(§5) For DSS parameters 1–6, therapeutic windows were calculated by comparing OBSC toxicity and tumor response at the doses where tumor kill passed through the DSS parameter (Table S1 and S3). For DSS parameter 7, the therapeutic window was calculated by comparing the slopes through the tumor EC50 and the OBSC tox EC50. For DSS parameter 8, the therapeutic window was calculated by comparing the areas under tumor kill and OBSC tox curves. Normalized therapeutic window ratios for DSS parameters 1–8 within each drug-tumor-OBSC interaction were calculated in the following manner: within each window, values ranged from +1 to −1, where values approaching +1 signify increasing tumor kill relative to normal tissue toxicity, and values approaching −1 indicate agents where tumors remained highly viable while toxicity to the normal OBSC tissue was elevated. DSS parameters 9–11 were determined based on the behavior of the tumor in response to the drug, as defined above.
(§6) All individually weighed parameters were added together to generate the DSS. Overall DSS from 0 to 100 signify increasing efficacy in tumor kill relative to OBSC toxicity, while scores from 0 to −100 describe scenarios in which tumors thrive more effectively than OBSCs for a given treatment. Dose-response values were calculated via linear interpolation of raw data, not from best-fit curve equations.

[7] = test system: U373KO (RAD18 knockout of U373WT via CRISPR); experiment: Drug screening of U373KO tumor foci on OBSCs; format: cell-based, human; details: U373 KO on OBSCs; for EC50 / EC90 / IC50: Homo sapiens, U373 MG; for EC50: dose required to kill 50% of the tumor; for EC90: dose required to kill 90% of the tumor; for IC50: dosed day 1, survival via bioluminescence day 4, linear interpolation; for AUC: area under the dose-response curve, trapezoidal rule
Procedure, shortened: as §1

[8] = test system: PDIPG (low-passage pediatric patient-derived line); experiment: Drug screening of PDIPG tumor foci on OBSCs; format: cell-based, human; details: for EC90 / EC50 / IC50: Homo sapiens; for EC50: dose required to kill 50% of the tumor, read-out: EC50; for IC50: dosed day 1, survival via bioluminescence day 4, linear interpolation, read-out: IC50; for AUC: area under the dose-response curve, trapezoidal rule; for EC25: dose required to kill 25% of the tumor; for Slope: slope through the EC50
Procedure, shortened: as §1

[9] = test system: PIS patient tumor tissue (intracranial sarcoma); experiment: Drug screening of uncultured patient tumor tissue PIS on OBSCs; format: cell-based, human; details: Homo sapiens; PIS on OBSCs; dose required to kill 90% of the tumor
Protocol: as §2, §3, §4, §5, §6

[10] = dose required to kill 25% of the tumor

Structure (SMILES): Nc1ccn([C@@H]2O[C@H](CO)[C@@H](O)C2(F)F)c(=O)n1 [Gemcitabine]
- Killing at highest dose [1]: 2.80E-01 fraction of tumor population killed
- EC50 [1]: > 10 µM
- EC90 [1]: > 10 µM
- IC50 [1]: > 10 µM
- AUC [1]: 7.06E+01
- EC10 [1]: 6.23 µM
- EC25 [1]: 8.4 µM
- Slope [1]: -5.45E-03
- Killing at highest dose [2]: 9.80E-01 fraction of tumor population killed
- AUC [2]: 2.79E+00
- EC10 [2]: 0.0676 µM
- EC25 [2]: 0.169 µM
- EC75 [2]: 0.533 µM
- Slope [2]: -1.48E+00
- EC90 [2]: 2 µM
- EC50 [2]: 0.338 µM
- IC50 [2]: 0.34 µM
- EC90 [3]: > 10 µM
- EC50 ([3]; MS21 on OBSCs): > 10 µM
- IC50 ([3]; MS21 on OBSCs): > 10 µM
- Killing at highest dose ([3]; MS21 on OBSCs): -1.20E-01 fraction of tumor population killed
- EC50 [4]: > 10 µM
- EC90 [4]: > 10 µM
- IC50 [4]: > 10 µM
- Killing at highest dose [4]: 3.30E-01 fraction of tumor population killed
- AUC [4]: 7.29E+01
- EC10 [4]: 0.385 µM
- EC25 [4, 10]: 50 µM
- Slope [4]: -1.60E-03
- EC50 ([5]; MB231BR on OBSCs): > 10 µM
- EC90 ([5]; MB231BR on OBSCs): > 10 µM
- IC50 [5]: > 10 µM
- Killing at highest dose ([5]; MB231BR on OBSCs): -7.90E-01 fraction of tumor population killed
- Slope ([5]; MB231BR on OBSCs): 1.56E-02
- EC90 [6]: > 10 µM
- EC50 [7]: 0.868 µM
- EC90 [7]: > 10 µM
- IC50 [7]: 0.9 µM
- Killing at highest dose [7]: 6.20E-01 fraction of tumor population killed
- AUC [7]: 3.67E+01
- EC10 ([7]; dose required to kill 10% of the tumor): 0.139 µM
- EC25 [7, 10]: 0.347 µM
- Slope ([7]; slope through the EC50): -3.80E-01
- EC90 [8]: > 10 µM
- EC50 ([8]; PDIPG on OBSCs): > 10 µM
- IC50 ([8]; PDIPG on OBSCs): > 10 µM
- Killing at highest dose ([8]; PDIPG on OBSCs): 4.80E-01 fraction of tumor population killed
- AUC ([8]; PDIPG on OBSCs): 5.72E+01
- EC25 ([8]; PDIPG on OBSCs): 0.284 µM
- Slope ([8]; PDIPG on OBSCs): -3.03E-04
- EC90 [9]: > 10 µM

Structure (SMILES): CC[C@]1(O)C[C@H]2CN(CCc3c([nH]c4ccccc34)[C@@](C(=O)OC)(c3cc4c(cc3OC)N(C=O)[C@H]3[C@@](O)(C(=O)OC)[C@H](OC(C)=O)[C@]5(CC)C=CCN6CC[C@]43[C@@H]65)C2)C1 [Vincristine]
- Killing at highest dose [1]: 4.10E-01 fraction of tumor population killed
- EC50 [1]: > 10 µM
- EC90 [1]: > 10 µM
- IC50 [1]: > 10 µM
- AUC [1]: 6.37E+00
- EC10 [1]: 0.00667 µM
- EC25 [1]: 0.418 µM
- Slope [1]: -8.89E-03
- Killing at highest dose [2]: 1.00E+00 fraction of tumor population killed
- AUC [2]: 2.38E-01
- EC10 [2]: 0.00435 µM
- EC25 [2]: 0.0129 µM
- EC75 [2]: 0.0843 µM
- Slope [2]: -7.00E+00
- EC90 [2]: 0.26 µM
- EC50 [2]: 0.0486 µM
- IC50 [2]: 0.05 µM
- EC90 [3]: > 10 µM
- EC50 ([3]; MS21 on OBSCs): 4.6 µM
- IC50 ([3]; MS21 on OBSCs): 4.6 µM
- Killing at highest dose ([3]; MS21 on OBSCs): 5.30E-01 fraction of tumor population killed
- AUC ([3]; MS21 on OBSCs, area under the dose-response curve, trapezoidal rule): 5.22E+00
- EC10 ([3]; MS21 on OBSCs, dose required to kill 10% of the tumor): 0.00526 µM
- EC25 ([3]; MS21 on OBSCs, dose required to kill 25% of the tumor): 0.172 µM
- Slope ([3]; MS21 on OBSCs, slope through the EC50): -5.56E-03
- EC50 [4]: > 10 µM
- EC90 [4]: > 10 µM
- IC50 [4]: > 10 µM
- Killing at highest dose [4]: -6.60E-01 fraction of tumor population killed
- AUC [4]: 1.36E+01
- EC10 [4]: 0.82 µM
- Slope [4]: 5.78E-02
- EC50 ([5]; MB231BR on OBSCs): > 10 µM
- EC90 ([5]; MB231BR on OBSCs): > 10 µM
- IC50 [5]: > 10 µM
- Killing at highest dose ([5]; MB231BR on OBSCs): 7.00E-02 fraction of tumor population killed
- AUC ([5]; MB231BR on OBSCs, area under the dose-response curve, trapezoidal rule): 1.02E+01
- Slope ([5]; MB231BR on OBSCs): -1.89E-02
- EC90 [6]: > 10 µM
- EC50 [7]: > 10 µM
- EC90 [7]: > 10 µM
- IC50 [7]: > 10 µM
- Killing at highest dose [7]: -7.40E-01 fraction of tumor population killed
- AUC [7]: 1.89E+01
- EC90 [8]: > 10 µM
- EC50 ([8]; PDIPG on OBSCs): > 10 µM
- IC50 ([8]; PDIPG on OBSCs): > 10 µM
- Killing at highest dose ([8]; PDIPG on OBSCs): 4.86E-01 fraction of tumor population killed
- AUC ([8]; PDIPG on OBSCs): 6.36E+00
- EC10 ([8]; PDIPG on OBSCs, dose required to kill 10% of the tumor): 0.242 µM
- EC25 ([8]; PDIPG on OBSCs): 0.406 µM
- Slope ([8]; PDIPG on OBSCs): -2.32E-02
- EC90 [9]: > 10 µM
